Consider three compounds from article PMC4748418 (Journal of chromatography. A, 2015).

Test [1] addresses T1, α3β4α5 nAChR (Homo sapiens, UniProt P30532+P30926+P32297). The following applies: agonist binding site.
Test [2] deals with α3β4 nAChR (Homo sapiens, UniProt P30926+P32297). As to the kind of experiment: biochemical.
For test [3], the target named is T1, α3β4α5 nAChR. As to the kind of experiment: biochemical.

Chain of α3β4 nAChR (P32297 32-505): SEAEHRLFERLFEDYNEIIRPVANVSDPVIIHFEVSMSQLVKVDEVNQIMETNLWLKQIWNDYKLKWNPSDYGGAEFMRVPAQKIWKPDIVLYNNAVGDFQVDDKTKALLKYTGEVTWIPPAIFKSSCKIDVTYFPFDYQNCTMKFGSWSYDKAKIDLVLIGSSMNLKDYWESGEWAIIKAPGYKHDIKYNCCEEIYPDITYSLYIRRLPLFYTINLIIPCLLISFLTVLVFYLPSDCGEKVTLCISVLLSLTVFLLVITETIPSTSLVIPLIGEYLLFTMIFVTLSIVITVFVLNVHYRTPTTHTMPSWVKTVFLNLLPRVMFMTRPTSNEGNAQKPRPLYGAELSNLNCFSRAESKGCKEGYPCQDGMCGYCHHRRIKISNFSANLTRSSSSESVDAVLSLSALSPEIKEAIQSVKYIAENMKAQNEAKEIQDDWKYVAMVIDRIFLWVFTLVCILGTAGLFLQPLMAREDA
Chain of α3β4 nAChR (P30926 22-498): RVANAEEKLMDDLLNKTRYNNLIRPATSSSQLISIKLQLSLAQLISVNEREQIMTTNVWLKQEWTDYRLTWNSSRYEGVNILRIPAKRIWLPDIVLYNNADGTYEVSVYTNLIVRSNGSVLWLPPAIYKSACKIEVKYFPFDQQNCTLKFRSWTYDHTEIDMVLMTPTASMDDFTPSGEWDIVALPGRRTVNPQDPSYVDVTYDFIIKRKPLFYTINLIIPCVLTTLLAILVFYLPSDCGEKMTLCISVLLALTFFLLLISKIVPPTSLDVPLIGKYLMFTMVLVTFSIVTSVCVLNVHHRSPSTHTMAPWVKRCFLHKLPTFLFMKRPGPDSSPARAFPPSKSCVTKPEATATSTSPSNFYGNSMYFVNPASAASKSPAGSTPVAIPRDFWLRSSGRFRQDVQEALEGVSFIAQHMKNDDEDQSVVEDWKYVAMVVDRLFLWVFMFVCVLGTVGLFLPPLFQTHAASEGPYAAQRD
T1 sequence (P32297 32-505): as the sequence (P32297 32-505) above
T1 sequence (P30926 22-498): as the sequence (P30926 22-498) above
T1 sequence (P30532 23-468): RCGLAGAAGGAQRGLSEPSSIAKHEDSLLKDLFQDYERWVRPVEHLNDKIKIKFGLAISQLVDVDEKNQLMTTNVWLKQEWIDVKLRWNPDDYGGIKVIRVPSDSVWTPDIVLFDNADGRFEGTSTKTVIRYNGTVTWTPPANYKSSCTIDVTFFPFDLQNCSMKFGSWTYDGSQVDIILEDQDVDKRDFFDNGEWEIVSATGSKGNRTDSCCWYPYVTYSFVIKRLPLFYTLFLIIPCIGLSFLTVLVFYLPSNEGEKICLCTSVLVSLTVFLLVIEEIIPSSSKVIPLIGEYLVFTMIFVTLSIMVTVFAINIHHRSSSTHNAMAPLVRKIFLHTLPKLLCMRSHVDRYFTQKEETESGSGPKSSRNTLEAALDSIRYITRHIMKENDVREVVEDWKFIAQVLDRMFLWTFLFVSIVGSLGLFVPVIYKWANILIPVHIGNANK

As usually defined, the Ki is a dissociation constant, usually derived from enzyme kinetics or from competition with a known ligand. For the compound `c1cncc([C@@H]2CCCCN2)c1` [Anabasine], in test [1], the “higher affinity for the α3β4α5 nAChR vs the α3β4 nAChR” value is given as 10 fold; the “subtype selectivity between α3β4 and α3β4α5 nicotinic receptors” value is on record as “selective for the α3β4α5 nicotinic receptor”. In test [2], the affinity corresponds to a Ki of 0.528 ± 0.136 µM. Besides, in test [3], affinity was put at a Ki of 0.0675 ± 0.0258 µM.
As a reminder, the Kd is the constant that tells how readily two partners part at equilibrium. Low readings indicate a tighter complex, high ones a looser complex. With `O=c1cccc2n1C[C@@H]1CNC[C@H]2C1` [Cytisine], in test [2], the Kd came to 0.0085 µM and the Ki came out at 0.00852 ± 0.0057 µM. In test [3], this compound yielded a Kd of 0.0054 µM and a Ki of 0.0054 ± 0.0035 µM.
Consider `c1cncc([C@@H]2CCCN2)c1` [Nornicotine], for which, in test [1], the “subtype selectivity between α3β4 and α3β4α5 nicotinic receptors” value was “no subtype selectivity”. In test [2], this compound registered a dissociation constant Kd of 0.036 µM and a Ki of 0.0356 ± 0.0189 µM. For the same compound, in test [3], the Kd was found to be 0.021 µM and the Ki was 0.0208 ± 0.0117 µM.
